Series [1] can be described thus: hygroscopicity by dynamic vapor sorption. Type of series: physicochemical. As for the experimental part: Hygroscopicity was assessed using a dynamic vapor sorption technique in which an accurately weighed sample is subjected to progressively changing water vapor pressure while simultaneously recording the weight change. The experiment was conducted isothermally at 25° C.
Less than 0.5% increase in weight was detected at 90±2% relative humidity during an isothermal (25.1±0.1° C.) moisture sorption analysis conducted from approximately 1% to 90% (±2%) humidity. […] The amount of water vapor sorption may vary depending on the particle size and surface area of sample.

For series [2], the target named is T1, 5HT2b (Homo sapiens, UniProt P41595). Briefly: functional activity at the 5-HT2b receptor. The source says:
(§1) Formula I of the present invention is functionally selective for 5-HT2c against 5-HT2a and 5-HT2b, by virtue of its much greater agonistic potency (lower EC50) for 5-HT2c than that observed for 5-HT2a and/or 5-HT2b or its lack of agonistic activity at 5-HT2a and/or 5-HT2b.

Series [3] has as its target T1, 5HT2b. Briefly: receptor binding assay at human 5HT2b receptor. The following applies: an amorphous salt of Formula I was tested. As for the experimental part:
(§2) An amorphous salt of Formula I was tested in accordance with the binding assay procedures at human receptors provided in U.S. application Ser. No. 11/395,327, and the following receptor binding data for the compound of Formula I was obtained: […]

Series [4] deals with T2, 5HT2c (Homo sapiens, UniProt P28335).
T2 sequence (P28335 33-458): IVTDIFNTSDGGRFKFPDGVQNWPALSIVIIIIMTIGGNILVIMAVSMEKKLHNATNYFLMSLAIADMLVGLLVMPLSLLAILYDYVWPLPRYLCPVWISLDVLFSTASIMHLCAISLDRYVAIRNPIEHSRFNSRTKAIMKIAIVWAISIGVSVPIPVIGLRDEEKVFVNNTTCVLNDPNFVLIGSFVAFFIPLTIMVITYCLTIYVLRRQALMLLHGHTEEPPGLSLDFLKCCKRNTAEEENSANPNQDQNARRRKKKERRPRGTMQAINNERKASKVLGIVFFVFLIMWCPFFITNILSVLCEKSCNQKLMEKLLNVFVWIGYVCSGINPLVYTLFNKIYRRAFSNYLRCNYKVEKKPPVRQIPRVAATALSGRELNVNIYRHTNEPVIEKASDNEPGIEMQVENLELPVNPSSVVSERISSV
Briefly: receptor binding assay at human 5HT2c receptor. The following applies: an amorphous salt of Formula I was tested. How it is done:
as §2

Series [5] has as its target T3, 5HT2a (Homo sapiens, UniProt P28223). Briefly: functional activity at the 5-HT2a receptor.
Text: as §1

Series [6] deals with T3, 5HT2a. Briefly: receptor binding assay at human 5HT2a receptor. The following applies: an amorphous salt of Formula I was tested.
Series [7] addresses T2, 5HT2c. Briefly: functional activity at the 5-HT2c receptor.
Text: as §1

For series [8] the following is noted: cited from earlier work.
The conditions of series [9]: cited from earlier work. This is another data set of the same source.

As a reminder, the Ki is a dissociation constant, usually derived from enzyme kinetics or from competition with a known ligand. For orientation: half-life means how long it takes for the measured level to halve.

Structures are written as SMILES.

T3 sequence (P28223 whole entry): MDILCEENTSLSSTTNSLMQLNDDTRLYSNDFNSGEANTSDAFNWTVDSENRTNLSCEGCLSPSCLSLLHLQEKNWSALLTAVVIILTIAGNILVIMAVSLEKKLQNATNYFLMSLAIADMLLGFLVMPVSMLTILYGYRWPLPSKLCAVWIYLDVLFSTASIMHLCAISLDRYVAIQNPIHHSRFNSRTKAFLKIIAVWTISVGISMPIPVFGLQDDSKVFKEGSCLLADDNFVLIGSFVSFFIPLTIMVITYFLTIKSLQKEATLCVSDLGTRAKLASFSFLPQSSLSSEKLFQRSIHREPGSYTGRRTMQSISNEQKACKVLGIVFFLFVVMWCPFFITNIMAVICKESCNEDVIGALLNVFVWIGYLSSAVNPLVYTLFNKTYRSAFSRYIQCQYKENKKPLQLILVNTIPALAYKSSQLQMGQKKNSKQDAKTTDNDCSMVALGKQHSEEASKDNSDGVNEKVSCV
T1 sequence (P41595 whole entry): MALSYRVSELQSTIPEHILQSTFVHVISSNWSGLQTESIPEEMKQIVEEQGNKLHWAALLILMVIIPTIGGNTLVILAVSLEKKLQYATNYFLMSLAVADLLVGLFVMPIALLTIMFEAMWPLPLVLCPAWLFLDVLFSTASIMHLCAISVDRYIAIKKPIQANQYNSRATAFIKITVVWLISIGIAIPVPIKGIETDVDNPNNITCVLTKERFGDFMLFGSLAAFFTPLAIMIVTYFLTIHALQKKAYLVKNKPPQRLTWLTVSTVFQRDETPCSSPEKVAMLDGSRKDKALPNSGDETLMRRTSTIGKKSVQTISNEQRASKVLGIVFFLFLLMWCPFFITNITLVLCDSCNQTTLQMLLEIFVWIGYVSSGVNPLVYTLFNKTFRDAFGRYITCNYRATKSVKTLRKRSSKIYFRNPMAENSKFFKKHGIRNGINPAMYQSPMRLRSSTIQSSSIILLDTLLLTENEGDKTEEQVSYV

As to `Cc1ccc(F)cc1CO[C@H]1CCc2ccc(N3CCNC[C@H]3C)nc21.O=C(O)C(O)C(O)C(=O)O` [(S)-7-(5-Fluoro-2-methyl-benzyloxy)-2-((R)-2-methyl-piperazin-1-yl)-6,7-dihydro-5H-[1]pyrindine L(+)-tartrate], the “increase in weight (moisture sorption)” value in series [1] (at 90±2% relative humidity, isothermal (25.1±0.1° C.) moisture sorption from approximately 1% to 90% (±2%) humidity) was “Less than 0.5%”. Also, in [1] (dynamic vapor sorption, isothermal at 25° C.), the hygroscopicity assessment entry is recorded as “non-hygroscopic”.

In the case of `Cc1ccc(F)cc1CO[C@H]1CCc2ccc(N3CCNC[C@H]3C)nc21` [Formula I, (7S)-7-[(5-fluoro-2-methyl-benzyl)oxy]-2-[(2R)-2-methylpiperazin-1-yl]-6,7-dihydro-5H-cyclopenta[b]pyridine], the “functional activity at the 5-HT2b receptor” value in series [2] is “antagonist”. Further, the Ki in series [3] was found to be 7.7 nM; in [4], 1.5 nM; in [6] it was 4.5 nM. For the same compound, the “functional activity at the 5-HT2a receptor” value in series [5] was “antagonist or weak partial agonist”. The “functional activity at the 5-HT2c receptor” value in [7] is on record as “potent, high affinity agonist”.

Turning to `O=C1Cc2cc(CCN3CCN(c4nsc5ccccc45)CC3)c(Cl)cc2N1` [Ziprasidone, 5-[2-[4-(1,2-benzisothiazol-3-yl)piperazin-1-yl]ethyl]-6-chloroindolin-2-one], the half-life in series [8] (in vivo) was 6 to 7 h. In addition, the oral bioavailability entry in series [8] (taken with food) is recorded as “approximately 60%”. In addition, in [9], the protein binding entry is “extensive”.

Source of the values: US20100004259A1, “Tartrate Salt of (7S)-7-[(5-Fluoro-2-Methyl-Benzyl)oxy]-2-[(2R)-2-Methylpiperazin-1-YL]-6,7-Dihydro-5H-Cyclopenta[B]Pyridine” (Pfizer Inc., priority 2006, published 2010).
